# Data published in ChEMBL document CHEMBL1201862, “PubChem BioAssay data set” (2004).
#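 1) Cells in 96-well plates. 2) Compound, 48 h, 5 concentrations. 3) Linear interpolation between surrounding doses. 4) Unreached endpoint = highest concentration. At the GI50, growth is halved.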 Calls of active or inactive are those of the source. Cut-off read from the data, not from the text of the source: active = GI50 up to about 1.1 µM and inactive = higher.
# Key:
# Experiment in all cases: NCI tumour cell line growth inhibition, 48 h
# [1] = tested on: SK-MEL-28
# [2] = tested on: LOX IMVI
# [3] = tested on: DMS-273
# [4] = tested on: SNB-78
# [5] = tested on: NCI-H23
# [6] = tested on: SN12C
# [7] = tested on: SNB-19
# [8] = tested on: OVCAR-5
# [9] = tested on: HT-29
# [10] = tested on: NCI-H226
# [11] = tested on: COLO 205
# [12] = tested on: SW-620
# [13] = tested on: SK-MEL-2
# [14] = tested on: KM-20L2
# [15] = tested on: DMS-114
# [16] = tested on: Malme-3M
# [17] = tested on: XF498
# [18] = tested on: ACHN
# [19] = tested on: NCI-H460
# [20] = tested on: SK-OV-3
# [21] = tested on: EKVX
# [22] = tested on: CAKI-1
# [23] = tested on: HL-60
# [24] = tested on: OVCAR-8
# [25] = tested on: KM12
# [26] = tested on: HOP-92
# [27] = tested on: M19-MEL
# [28] = tested on: UO-31
# [29] = tested on: SNB-75
# [30] = tested on: A549
# [31] = tested on: CCRF-CEM
# [32] = tested on: 786-0
# [33] = tested on: SF-295
# [34] = tested on: MOLT-4
# [35] = tested on: HOP-62
# [36] = tested on: OVCAR-4
# [37] = tested on: UACC-257
# [38] = tested on: HCC 2998
# [39] = tested on: HOP-18
# [40] = tested on: LXFL 529
# [41] = tested on: SF-268
# [42] = tested on: SR
# [43] = tested on: A498
# [44] = tested on: SK-MEL-5
# [45] = tested on: DLD-1
# [46] = tested on: SF-539
# [47] = tested on: RXF 393
# [48] = tested on: TK-10
# [49] = tested on: NCI-H522
# [50] = tested on: K562
# [51] = tested on: U-251
# [52] = tested on: M14
# [53] = tested on: OVCAR-3
# [54] = tested on: HCT-15
# [55] = tested on: UACC-62
# [56] = tested on: IGROV-1
# [57] = tested on: RXF 631
# [58] = tested on: RPMI-8226
# [59] = tested on: HCT-116
structure (smiles),measurement,setting,value
O=C(OCN1C(=O)C2C3C=CC(C2C1=O)C1C2C(=O)N(COC(=O)C4CCCN4)C(=O)C2C31)C1CCCN1 (centres undefined),GI50,[1],> 83.9 µM (inactive)
same,GI50,[2],35.9 µM (inactive)
same,GI50,[3],38.5 µM (inactive)
same,GI50,[4],> 100 µM (inactive)
same,GI50,[5],> 100 µM (inactive)
same,GI50,[6],> 72.3 µM (inactive)
same,GI50,[7],> 100 µM (inactive)
same,GI50,[8],> 100 µM (inactive)
same,GI50,[9],67 µM (inactive)
same,GI50,[10],> 100 µM (inactive)
same,GI50,[11],59.8 µM (inactive)
same,GI50,[12],30.2 µM (inactive)
same,GI50,[13],> 31.6 µM (inactive)
same,GI50,[14],64.1 µM (inactive)
same,GI50,[15],25.9 µM (inactive)
same,GI50,[16],> 100 µM (inactive)
same,GI50,[17],> 75.9 µM (inactive)
same,GI50,[18],> 50.5 µM (inactive)
same,GI50,[19],22.6 µM (inactive)
same,GI50,[20],> 100 µM (inactive)
same,GI50,[21],> 100 µM (inactive)
same,GI50,[22],> 86.9 µM (inactive)
same,GI50,[23],22.1 µM (inactive)
same,GI50,[24],25.5 µM (inactive)
same,GI50,[25],> 94 µM (inactive)
same,GI50,[26],> 100 µM (inactive)
same,GI50,[27],> 77.8 µM (inactive)
same,GI50,[28],> 100 µM (inactive)
same,GI50,[29],> 82.6 µM (inactive)
same,GI50,[30],62.5 µM (inactive)
same,GI50,[31],21.8 µM (inactive)
same,GI50,[32],35.6 µM (inactive)
same,GI50,[33],> 82.6 µM (inactive)
same,GI50,[34],32.3 µM (inactive)
same,GI50,[35],> 100 µM (inactive)
same,GI50,[36],> 58.3 µM (inactive)
same,GI50,[37],> 79.4 µM (inactive)
same,GI50,[38],> 100 µM (inactive)
same,GI50,[39],> 100 µM (inactive)
same,GI50,[40],78.7 µM (inactive)
same,GI50,[41],> 51.3 µM (inactive)
same,GI50,[42],< 0.01 µM (active)
same,GI50,[43],> 100 µM (inactive)
same,GI50,[44],62.5 µM (inactive)
same,GI50,[45],34.2 µM (inactive)
same,GI50,[46],47.8 µM (inactive)
same,GI50,[47],> 76.6 µM (inactive)
same,GI50,[48],> 100 µM (inactive)
same,GI50,[49],78.3 µM (inactive)
same,GI50,[50],> 67.9 µM (inactive)
same,GI50,[51],> 45.8 µM (inactive)
same,GI50,[52],71.6 µM (inactive)
same,GI50,[53],> 100 µM (inactive)
same,GI50,[54],25 µM
same,GI50,[55],> 76.7 µM (inactive)
same,GI50,[56],> 91 µM (inactive)
same,GI50,[57],> 64.7 µM (inactive)
same,GI50,[58],24.8 µM (inactive)
same,GI50,[59],28.8 µM (inactive)
